Where two headings read alike, the source gives them in different places. Bridge positions count the residues as written; N and C are the ends. Square brackets hold non-standard residues; d marks the D form. Peptide text beside a SMILES is read from it. * marks the point of attachment. X2 = CN1C[C@H](CSCC(=O)*)C[C@@H]2c3cccc4[nH]cc(c34)C[C@H]21
How the values were obtained:
hSSTR2 [1] = biological target: T1, hSSTR2 (Homo sapiens, UniProt P30874); assay: Somatostatin receptor radioligand binding assay, hSSTR2
T1 construct: host or cells: 'Cells expressing hSSTR2'
Protocol: The affinities of a test compound for the human somatostatin receptors were determined by radioligand binding assays in CHO-K1 cells stably transfected with each of the human somatostatin receptor subtypes, hSSTR1-5. The cDNA coding sequences of hSSTR1 (GenBank accession No. NM_001049.1), hSSTR2 (GenBank accession No. XM_012697.1), hSSTR3 (GenBank accession No. XM_009963.1), hSSTR4 (GenBank accession No. NM_001052.1), and hSSTR5 (GenBank accession No. XM_012565.1) were subcloned into the mammalian expression vector pcDNA3.1 (Life Technologies). Clonal cell lines stably expressing each of the somatostatin receptors were obtained by transfection into CHO-K1 cells (ATCC) and subsequently selected with culture media containing 0.8 mg/mL of G418 (Life Technologies).
Membranes for in vitro receptor binding assays were obtained by the following procedures. […] The supernatant containing the plasma membranes was centrifuged at 100,000×g for 30 minutes and the pellet was resuspended in buffer containing 20 mM glycine-glycine, 1 mM MgCl2, 250 mM sucrose, pH 7.2, for storage at −80° C. […]

hSSTR2 [2] = biological target: T1, hSSTR2; assay: Intracellular calcium mobilization assay (FLIPR Calcium 4), hSSTR2; type: cell-based
Protocol: The ability of select compounds according to the present invention to activate hSSTR2 and hDRD2 was determined by the intracellular calcium mobilization assay using FLIPR Calcium 4 assay kit (Molecular Devices).
Cells expressing hSSTR2 or hDRD2 were plated in 384-well microplates in tissue culture media and incubated for 16-24 hours at 37° C. in a humidified atmosphere with 5% CO2. Medium was replaced by loading buffer containing Hank's buffered saline, 20 mM HEPES, 2.5 mM probenecid and Calcium 4 dye, and the plates were incubated at 37° C. for 60 minutes.

[3] = system: pituitary tumor cells of acromegalic patients presenting with macroadenoma; assay: Human pituitary adenoma cell growth hormone release assay; type: cell-based; conditions: 18 hours incubation, AlphaLISA GH immunoassay; FIG. 5
Protocol: FIG. 1 is a graph showing the Growth hormone suppressing activity of Compound 4 (see Table I hereinbelow for its chemical name and its corresponding structural representation) on pituitary tumor cells of acromegalic patients presenting with macroadenoma. Various concentrations of Compound 4 were added to the medium and the cells were incubated for 18 hours before measurement of Growth hormone levels in the medium using the AlphaLISA Growth Hormone Immunoassay Research kit (PerkinElmer).
Various concentrations of Compounds 4 and 5 were added to the medium and the cells were incubated for 18 hours before measurement of Growth hormone levels in the medium using the AlphaLISA Growth Hormone Immunoassay Research kit (PerkinElmer).
Acromegalic patients presenting with macroadenoma underwent transsphenoidal surgery and a portion of each tumor obtained at surgery was dissociated by enzymatic and mechanical methods. The cells were cultured in DMEM medium supplemented with 10% FBS and antibiotics for 3 days. The cells were then plated in multi-well tissue culture dishes coated with extracellular matrix from bovine endothelial corneal cells at a density of 3-5×10^4 cells/well in DMEM supplemented with 10% FBS and antibiotics. After 2-3 days of culture, the medium was changed to DMEM supplemented with 1% FBS, antibiotics and 1% ITS (insulin, transferrin and selenium).

T1 sequence (P30874 whole entry): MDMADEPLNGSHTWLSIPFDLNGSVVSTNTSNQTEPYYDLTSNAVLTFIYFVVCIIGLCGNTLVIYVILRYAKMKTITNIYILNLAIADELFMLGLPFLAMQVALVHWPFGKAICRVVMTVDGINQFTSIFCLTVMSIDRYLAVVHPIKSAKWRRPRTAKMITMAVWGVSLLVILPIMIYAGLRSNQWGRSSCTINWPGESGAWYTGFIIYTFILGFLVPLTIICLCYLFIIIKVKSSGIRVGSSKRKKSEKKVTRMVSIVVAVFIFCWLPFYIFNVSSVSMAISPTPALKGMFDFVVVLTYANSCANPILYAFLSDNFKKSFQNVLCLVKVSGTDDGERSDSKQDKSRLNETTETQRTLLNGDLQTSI

Structure (SMILES): C[C@@H](O)[C@@H]1NC(=O)[C@H](CCCCN)NC(=O)[C@@H](Cc2c[nH]c3ccccc23)NC(=O)[C@H](Cc2ccc(O)cc2)NC(=O)[C@H](Cc2ccncc2)NC(=O)[C@H](CCCNC(=N)N)NC(=O)[C@H](NC[C@@H](Cc2ccc(O)cc2)NC(=O)CSC[C@@H]2C[C@@H]3c4cccc5[nH]cc(c45)C[C@H]3N(C)C2)CCCCNC(=O)[C@H](Cc2ccccc2)NC1=O [Compound 46, Dop1-DTyr-psi(CH2NH)-cyclo(DLys-Arg-4Pal-Tyr-DTrp-Lys-Thr-Phe)]
- Ki (hSSTR2 [1]; CHO-K1 membranes, [125I-Tyr]-seglitide, read-out: hSSTR2 Ki (nM) ± SEM): 0.52 ± 0.06 nM
- EC50 (hSSTR2 [2]; calcium mobilization, cells expressing hSSTR2, read-out: hSSTR2 EC50 (nM) ± SEM): 60 nM

Structure (SMILES): C[C@@H](O)[C@@H]1NC(=O)[C@H](CCCCN)NC(=O)[C@@H](Cc2c[nH]c3ccccc23)NC(=O)[C@H](Cc2ccccc2)NC(=O)[C@H](Cc2ccccc2)NC(=O)[C@H](CCCNC(=N)N)NC(=O)[C@H](NC(=O)CSC[C@@H]2C[C@@H]3c4cccc5[nH]cc(c45)C[C@H]3N(C)C2)CCCCNC(=O)[C@H](Cc2ccccc2)NC1=O [Compound 44, Dop1-cyclo(DLys-Arg-Phe-Phe-DTrp-Lys-Thr-Phe)] (X2-[dK]RFF[dW]KTF; lactam 1-C)
- Emax (hSSTR2 [2]; read-out: hSSTR2 % Emax ± SEM): 97.1 ± 5.9%

Structure (SMILES): C[C@@H](O)[C@@H]1NC(=O)[C@H](CCCCN)NC(=O)[C@@H](Cc2c[nH]c3ccccc23)NC(=O)[C@H](Cc2ccccc2)NC(=O)[C@H](Cc2ccccc2)NC(=O)[C@H](CCCNC(=N)N)NC(=O)[C@H](NC[C@H](Cc2ccc(O)cc2)NC(=O)CSC[C@@H]2C[C@@H]3c4cccc5[nH]cc(c45)C[C@H]3N(C)C2)CCCCNC(=O)[C@H](Cc2ccc(F)cc2)NC1=O [Compound 5, Dop1-Tyr-psi(CH2NH)-cyclo(DLys-Arg-Phe-Phe-DTrp-Lys-Thr-4FPhe)]
- Growth hormone suppressing activity compared to the parent somatostatin analogs [3]: enhanced Growth hormone suppressing activity

Structure (SMILES): C[C@@H](O)[C@@H]1NC(=O)[C@H](CCCCN)NC(=O)[C@@H](Cc2c[nH]c3ccccc23)NC(=O)[C@H](Cc2ccccc2)NC(=O)[C@H](Cc2ccccc2)NC(=O)[C@H](CCCNC(=N)N)NC(=O)[C@@H](NC[C@H](Cc2ccc(O)cc2)NC(=O)CSC[C@@H]2C[C@@H]3c4cccc5[nH]cc(c45)C[C@H]3N(C)C2)CCCNC(=O)[C@H](Cc2ccccc2)NC1=O [Compound 43, Dop1-Tyr-psi(CH2NH)-cyclo(Orn-Arg-Phe-Phe-DTrp-Lys-Thr-Phe)]
- Ki (hSSTR2 [1]): 1.07 ± 0.39 nM
- EC50 (hSSTR2 [2]): 31.6 ± 4.3 nM

Structure (SMILES): C[C@@H](O)[C@@H]1NC(=O)[C@H](CCCCN)NC(=O)[C@@H](Cc2c[nH]c3ccccc23)NC(=O)[C@H](Cc2ccncc2)NC(=O)[C@H](Cc2ccccc2)NC(=O)[C@H](CCCNC(=N)N)NC(=O)[C@H](NC[C@H](Cc2ccc(O)cc2)NC(=O)CSC[C@@H]2C[C@@H]3c4cccc5[nH]cc(c45)C[C@H]3N(C)C2)CCCCNC(=O)[C@H](Cc2ccccc2)NC1=O [Compound 4, Dop1-Tyr-psi(CH2NH)-cyclo(DLys-Arg-Phe-4Pal-DTrp-Lys-Thr-Phe)]
- Growth hormone suppressing activity compared to the parent somatostatin analogs [3]: enhanced Growth hormone suppressing activity

From patent publication US9731027B2, “Somatostatin-dopamine chimeric analogs” (Ipsen Pharma S.A.S., priority 2012, dated 2017)
